Test results: US8952024B2, “Herbicidal pyrimidone derivatives” (E I du Pont de Nemours and Company, priority 2009, dated 2015)

Columns and labels:
Assay type in all cases: in vivo
[1] = tested on: cocklebur (Xanthium strumarium); assay: Test B pre-/postemergence plant response; details: for Cocklebur plant response rating (0 to 100 scale): 62 g ai/ha, postemergence, 0 is no effect, 100 is complete control; for Plant response rating, Cocklebur: Postemergence
How it was run: (§1)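 Steps: sow seed in loam–sand soil and spray preemergence, or grow plants in peat-based medium to 1–4 leaves (2–18 cm) and spray postemergence; formulation is non-phytotoxic solvent plus surfactant; hold in greenhouse 13–15 days; score visually vs controls, 0 = no effect, 100 = complete control.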

[2] = tested on: goosegrass (Eleusine indica); assay: Test B pre-/postemergence plant response; details: for Goosegrass plant response rating (0 to 100 scale): 62 g ai/ha, postemergence, 0 is no effect, 100 is complete control; for Plant response rating, Goosegrass: Postemergence
How it was run: as §1

[3] = tested on: johnsongrass (Sorghum halepense); assay: Test B pre-/postemergence plant response; details: for Johnsongrass plant response rating (0 to 100 scale): 62 g ai/ha, postemergence, 0 is no effect, 100 is complete control; for Plant response rating, Johnsongrass: Postemergence
How it was run: as §1

kochia (Kochia scoparia) = assay: Test B pre-/postemergence plant response; details: for Kochia plant response rating (0 to 100 scale): 62 g ai/ha, postemergence, 0 is no effect, 100 is complete control; for Plant response rating, Kochia: Postemergence
How it was run: as §1

[4] = tested on: pigweed (Amaranthus retroflexus); assay: Test B pre-/postemergence plant response; details: for Pigweed plant response rating (0 to 100 scale): 62 g ai/ha, postemergence, 0 is no effect, 100 is complete control; for Plant response rating, Pigweed: Postemergence
How it was run: as §1

[5] = tested on: ragweed (common ragweed, Ambrosia elatior); assay: Test B pre-/postemergence plant response; details: for Ragweed plant response rating (0 to 100 scale): 62 g ai/ha, postemergence, 0 is no effect, 100 is complete control; for Plant response rating, Ragweed: Postemergence
How it was run: as §1

soybean (Glycine max) = assay: Test B pre-/postemergence plant response; details: for Soybean plant response rating (0 to 100 scale): 62 g ai/ha, postemergence, 0 is no effect, 100 is complete control; for Plant response rating, Soybean: Postemergence
How it was run: as §1

[6] = tested on: velvetleaf (Abutilon theophrasti); assay: Test B pre-/postemergence plant response; details: for Velvetleaf plant response rating (0 to 100 scale): 62 g ai/ha, postemergence, 0 is no effect, 100 is complete control; for Plant response rating, Velvetleaf: Postemergence
How it was run: as §1

[7] = tested on: wheat (Triticum aestivum); assay: Test B pre-/postemergence plant response; details: for Wheat plant response rating (0 to 100 scale): 62 g ai/ha, postemergence, 0 is no effect, 100 is complete control; for Plant response rating, Wheat: Postemergence
How it was run: as §1

wild oat (Avena fatua) = assay: Test B pre-/postemergence plant response; details: for Oat, Wild plant response rating (0 to 100 scale): 62 g ai/ha, postemergence, 0 is no effect, 100 is complete control; for Plant response rating, Oat, Wild: Postemergence
How it was run: as §1

[8] = tested on: canarygrass (Phalaris minor); assay: Test B postemergence plant response; details: for Canarygrass plant response rating (0 to 100 scale): 62 g ai/ha, postemergence, 0 is no effect, 100 is complete control; for Plant response rating, Canarygrass: Postemergence
How it was run: (§2)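 Plants at the 1- to 4-leaf stage (2 to 18 cm tall), grown in pots of peat moss/vermiculite medium with wetting agent and starter nutrients, received postemergence applications of test chemicals. After 13 to 15 days in a greenhouse, injury was rated visually against untreated controls on a 0 (no effect) to 100 (complete control) scale.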

[9] = tested on: chickweed (Stellaria media); assay: Test B postemergence plant response; details: for Chickweed plant response rating (0 to 100 scale): 62 g ai/ha, postemergence, 0 is no effect, 100 is complete control; for Plant response rating, Chickweed: Postemergence
How it was run: as §2

[10] = tested on: windgrass (Apera spica-venti); assay: Test B postemergence plant response; details: for Windgrass plant response rating (0 to 100 scale): 62 g ai/ha, postemergence, 0 is no effect, 100 is complete control; for Plant response rating, Windgrass: Postemergence
How it was run: as §2

[11] = 31 g ai/ha, 0 to 100 scale (0 no effect, 100 complete control)
[12] = 125 g ai/ha, scale 0 to 100 (0 no effect, 100 complete control)
[13] = 250 g ai/ha, scale 0 to 100 (0 no effect, 100 complete control), 13 to 15 days

CCCn1c(-c2cc(F)cc(F)c2)ncc(C(=O)C2=C(O)CCCC2=O)c1=O [Compound 152]
Cocklebur plant response rating (0 to 100 scale) ([1]; 13 to 15 days): 80 | Plant response rating, Cocklebur [1, 11]: 70 | Plant response rating, Cocklebur [1, 12]: 98 | Plant response rating, Cocklebur [1, 13]: 100 | Goosegrass plant response rating (0 to 100 scale) ([2]; 13 to 15 days): 85 | Plant response rating, Goosegrass [2, 11]: 80 | Plant response rating, Goosegrass [2, 12]: 95 | Plant response rating, Goosegrass [2, 13]: 98 | Johnsongrass plant response rating (0 to 100 scale) ([3]; 13 to 15 days): 90 | Plant response rating, Johnsongrass [3, 11]: 70 | Plant response rating, Johnsongrass [3, 12]: 95 | Plant response rating, Johnsongrass [3, 13]: 100 | Kochia plant response rating (0 to 100 scale) (kochia (Kochia scoparia); 13 to 15 days): 65 | Plant response rating, Kochia (kochia (Kochia scoparia); [11]): 10 | Plant response rating, Kochia (kochia (Kochia scoparia); [12]): 95 | Plant response rating, Kochia (kochia (Kochia scoparia); [13]): 100 | Pigweed plant response rating (0 to 100 scale) ([4]; 13 to 15 days): 98 | Plant response rating, Pigweed [4, 11]: 95 | Plant response rating, Pigweed [4, 12]: 100 | Plant response rating, Pigweed [4, 13]: 100 | Ragweed plant response rating (0 to 100 scale) ([5]; 13 to 15 days): 80 | Plant response rating, Ragweed [5, 11]: 60 | Plant response rating, Ragweed [5, 12]: 95 | Plant response rating, Ragweed [5, 13]: 98 | Soybean plant response rating (0 to 100 scale) (soybean (Glycine max); 13 to 15 days): 70 | Plant response rating, Soybean (soybean (Glycine max); [11]): 70 | Plant response rating, Soybean (soybean (Glycine max); [12]): 98 | Plant response rating, Soybean (soybean (Glycine max); [13]): 100 | Velvetleaf plant response rating (0 to 100 scale) ([6]; 13 to 15 days): 95 | Plant response rating, Velvetleaf [6, 11]: 85 | Plant response rating, Velvetleaf [6, 12]: 100 | Plant response rating, Velvetleaf [6, 13]: 100 | Wheat plant response rating (0 to 100 scale) ([7]; 13 to 15 days): 50 | Plant response rating, Wheat [7, 11]: 35 | Plant response rating, Wheat [7, 12]: 85 | Plant response rating, Wheat [7, 13]: 90 | Oat, Wild plant response rating (0 to 100 scale) (wild oat (Avena fatua); 13 to 15 days): 45 | Plant response rating, Oat, Wild (wild oat (Avena fatua); [11]): 30 | Plant response rating, Oat, Wild (wild oat (Avena fatua); [12]): 80 | Plant response rating, Oat, Wild (wild oat (Avena fatua); [13]): 85 | Canarygrass plant response rating (0 to 100 scale) ([8]; 13 to 15 days): 45 | Plant response rating, Canarygrass [8, 11]: 35 | Plant response rating, Canarygrass [8, 12]: 80 | Plant response rating, Canarygrass [8, 13]: 85 | Chickweed plant response rating (0 to 100 scale) ([9]; 13 to 15 days): 65 | Plant response rating, Chickweed [9, 11]: 10 | Plant response rating, Chickweed [9, 12]: 90 | Plant response rating, Chickweed [9, 13]: 95 | Windgrass plant response rating (0 to 100 scale) ([10]; 13 to 15 days): 70 | Plant response rating, Windgrass [10, 11]: 50 | Plant response rating, Windgrass [10, 12]: 85 | Plant response rating, Windgrass [10, 13]: 98

CCCn1c(-c2cccc(C(F)(F)F)c2)ncc(C(=O)C2=C(O)CCCC2=O)c1=O [Compound 155]
Cocklebur plant response rating (0 to 100 scale) ([1]; 13 to 15 days): 55 | Plant response rating, Cocklebur [1, 11]: 15 | Plant response rating, Cocklebur [1, 12]: 98 | Plant response rating, Cocklebur [1, 13]: 100 | Goosegrass plant response rating (0 to 100 scale) ([2]; 13 to 15 days): 80 | Plant response rating, Goosegrass [2, 11]: 65 | Plant response rating, Goosegrass [2, 12]: 85 | Plant response rating, Goosegrass [2, 13]: 98 | Johnsongrass plant response rating (0 to 100 scale) ([3]; 13 to 15 days): 40 | Plant response rating, Johnsongrass [3, 11]: 10 | Plant response rating, Johnsongrass [3, 12]: 65 | Plant response rating, Johnsongrass [3, 13]: 70 | Kochia plant response rating (0 to 100 scale) (kochia (Kochia scoparia); 13 to 15 days): 100 | Plant response rating, Kochia (kochia (Kochia scoparia); [11]): 35 | Plant response rating, Kochia (kochia (Kochia scoparia); [12]): 100 | Plant response rating, Kochia (kochia (Kochia scoparia); [13]): 100 | Pigweed plant response rating (0 to 100 scale) ([4]; 13 to 15 days): 100 | Plant response rating, Pigweed [4, 11]: 98 | Plant response rating, Pigweed [4, 12]: 100 | Plant response rating, Pigweed [4, 13]: 100 | Ragweed plant response rating (0 to 100 scale) ([5]; 13 to 15 days): 70 | Plant response rating, Ragweed [5, 11]: 45 | Plant response rating, Ragweed [5, 12]: 90 | Plant response rating, Ragweed [5, 13]: 95 | Soybean plant response rating (0 to 100 scale) (soybean (Glycine max); 13 to 15 days): 95 | Plant response rating, Soybean (soybean (Glycine max); [11]): 95 | Plant response rating, Soybean (soybean (Glycine max); [12]): 100 | Plant response rating, Soybean (soybean (Glycine max); [13]): 100 | Velvetleaf plant response rating (0 to 100 scale) ([6]; 13 to 15 days): 100 | Plant response rating, Velvetleaf [6, 11]: 100 | Plant response rating, Velvetleaf [6, 12]: 100 | Plant response rating, Velvetleaf [6, 13]: 100 | Wheat plant response rating (0 to 100 scale) ([7]; 13 to 15 days): 30 | Plant response rating, Wheat [7, 11]: 15 | Plant response rating, Wheat [7, 12]: 40 | Plant response rating, Wheat [7, 13]: 70 | Oat, Wild plant response rating (0 to 100 scale) (wild oat (Avena fatua); 13 to 15 days): 40 | Plant response rating, Oat, Wild (wild oat (Avena fatua); [11]): 10 | Plant response rating, Oat, Wild (wild oat (Avena fatua); [12]): 60 | Plant response rating, Oat, Wild (wild oat (Avena fatua); [13]): 70 | Canarygrass plant response rating (0 to 100 scale) ([8]; 13 to 15 days): 35 | Plant response rating, Canarygrass [8, 11]: 10 | Plant response rating, Canarygrass [8, 12]: 50 | Plant response rating, Canarygrass [8, 13]: 65 | Chickweed plant response rating (0 to 100 scale) ([9]; 13 to 15 days): 100 | Plant response rating, Chickweed [9, 11]: 100 | Plant response rating, Chickweed [9, 12]: 100 | Plant response rating, Chickweed [9, 13]: 100 | Windgrass plant response rating (0 to 100 scale) ([10]; 13 to 15 days): 55 | Plant response rating, Windgrass [10, 11]: 50 | Plant response rating, Windgrass [10, 12]: 70 | Plant response rating, Windgrass [10, 13]: 85

CCCn1c(-c2cc(C)cc(C)c2)ncc(C(=O)C2=C(O)CCCC2=O)c1=O [Compound 156]
Plant response rating, Cocklebur [1, 11]: 20 | Plant response rating, Cocklebur [1, 12]: 75 | Plant response rating, Cocklebur [1, 13]: 98 | Plant response rating, Goosegrass [2, 11]: 65 | Plant response rating, Goosegrass [2, 12]: 70 | Plant response rating, Goosegrass [2, 13]: 80 | Plant response rating, Johnsongrass [3, 11]: 15 | Plant response rating, Johnsongrass [3, 12]: 45 | Plant response rating, Johnsongrass [3, 13]: 65 | Plant response rating, Kochia (kochia (Kochia scoparia); [11]): 10 | Plant response rating, Kochia (kochia (Kochia scoparia); [12]): 20 | Plant response rating, Kochia (kochia (Kochia scoparia); [13]): 25 | Plant response rating, Pigweed [4, 11]: 60 | Plant response rating, Pigweed [4, 12]: 98 | Plant response rating, Pigweed [4, 13]: 100 | Plant response rating, Ragweed [5, 11]: 65 | Plant response rating, Ragweed [5, 12]: 75 | Plant response rating, Ragweed [5, 13]: 90 | Plant response rating, Soybean (soybean (Glycine max); [11]): 80 | Plant response rating, Soybean (soybean (Glycine max); [12]): 98 | Plant response rating, Soybean (soybean (Glycine max); [13]): 98 | Plant response rating, Velvetleaf [6, 11]: 60 | Plant response rating, Velvetleaf [6, 12]: 95 | Plant response rating, Velvetleaf [6, 13]: 100 | Plant response rating, Wheat [7, 11]: 15 | Plant response rating, Wheat [7, 12]: 35 | Plant response rating, Wheat [7, 13]: 45 | Plant response rating, Oat, Wild (wild oat (Avena fatua); [11]): 5 | Plant response rating, Oat, Wild (wild oat (Avena fatua); [12]): 35 | Plant response rating, Oat, Wild (wild oat (Avena fatua); [13]): 50 | Plant response rating, Canarygrass [8, 11]: 15 | Plant response rating, Canarygrass [8, 12]: 40 | Plant response rating, Canarygrass [8, 13]: 60 | Plant response rating, Chickweed [9, 11]: 80 | Plant response rating, Chickweed [9, 12]: 100 | Plant response rating, Chickweed [9, 13]: 100 | Plant response rating, Windgrass [10, 11]: 40 | Plant response rating, Windgrass [10, 12]: 55 | Plant response rating, Windgrass [10, 13]: 60
